In patent US10947242B2, “[1,2,4]triazolo[1,5and#8208;A]pyrimidine compounds as PDE2 inhibitors” (Janssen Pharmaceutica NV, priority 2016, dated 2021):
Read-outs that look alike come from different tables or passages of the source.

Tests used:
[1] = molecular target: T1, Human recombinant PDE2A (hPDE2A) (Homo sapiens, UniProt O00408); test: In vitro assay PDE2A (SPA, 3H-cGMP hydrolysis); type: biochemical; conditions: for Emax: read-out: hPDE2A Emax
T1 construct: His tag (inferred from metal chelate purification); made in house; host or cells: Sf9 insect cells (baculovirus)

[2] = molecular target: T2, Human recombinant PDE3A (hPDE3A) (Homo sapiens, UniProt Q14432); test: In vitro assay PDE3A (SPA, 3H-cAMP hydrolysis); type: biochemical; conditions: for IC50: hPDE3B pIC50, read-out: pIC50 (converted); for Emax: read-out: hPDE3B Emax, read-out: Emax;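 as to all read-outs here: the method names PDE3A and the table heading PDE3B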
T2 construct: purchased Scottish Biomedical; host or cells: Sf9 insect cells
Method in brief: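 Human PDE3A, cloned from brain, as partially purified Sf9 lysate. Substrate 0.4 μM cAMP plus [3H]-cAMP (2.4 μCi/ml final) in 50 mM Tris pH 7.8, 8.3 mM MgCl2, 1.7 mM EGTA, 60 min at room temperature, 1% DMSO final. Hydrolysis read by SPA scintillation counting against no-enzyme blanks and DMSO controls.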

[3] = molecular target: T3, Human recombinant PDE10A (hPDE10A) (Homo sapiens, UniProt Q9Y233); test: In vitro assay PDE10A, human clone (SPA, 3H-cAMP hydrolysis); type: biochemical
T3 construct: His tag (inferred from metal chelate purification); made in house; host or cells: Sf9 insect cells (baculovirus)
Method in brief: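 Human recombinant PDE10A was expressed in Sf9 cells via baculovirus and incubated with compound in 50 mM Tris pH 7.8, 8.3 mM MgCl2, 1.7 mM EGTA. Substrate was 60 nM cAMP plus 0.008 μCi 3H-cAMP for 60 min at room temperature, read by SPA scintillation counting. Controls used 1% DMSO, and blanks omitted enzyme.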

[4] = molecular target: T4, PDE2A (Rattus norvegicus, UniProt Q01062); test: PDE2 occupancy by test compounds, ex-vivo autoradiography with [3H]B-17a; type: in vivo, Male Wistar rats; conditions: for ED50: drug dose producing 50% receptor occupancy, read-out: PDE Occupancy ED50
T4 construct: Twenty μm-thick striatal sections were cut; from tissue; host or cells: rat brain, striatal sections
T4 sequence (Q01062 1-928): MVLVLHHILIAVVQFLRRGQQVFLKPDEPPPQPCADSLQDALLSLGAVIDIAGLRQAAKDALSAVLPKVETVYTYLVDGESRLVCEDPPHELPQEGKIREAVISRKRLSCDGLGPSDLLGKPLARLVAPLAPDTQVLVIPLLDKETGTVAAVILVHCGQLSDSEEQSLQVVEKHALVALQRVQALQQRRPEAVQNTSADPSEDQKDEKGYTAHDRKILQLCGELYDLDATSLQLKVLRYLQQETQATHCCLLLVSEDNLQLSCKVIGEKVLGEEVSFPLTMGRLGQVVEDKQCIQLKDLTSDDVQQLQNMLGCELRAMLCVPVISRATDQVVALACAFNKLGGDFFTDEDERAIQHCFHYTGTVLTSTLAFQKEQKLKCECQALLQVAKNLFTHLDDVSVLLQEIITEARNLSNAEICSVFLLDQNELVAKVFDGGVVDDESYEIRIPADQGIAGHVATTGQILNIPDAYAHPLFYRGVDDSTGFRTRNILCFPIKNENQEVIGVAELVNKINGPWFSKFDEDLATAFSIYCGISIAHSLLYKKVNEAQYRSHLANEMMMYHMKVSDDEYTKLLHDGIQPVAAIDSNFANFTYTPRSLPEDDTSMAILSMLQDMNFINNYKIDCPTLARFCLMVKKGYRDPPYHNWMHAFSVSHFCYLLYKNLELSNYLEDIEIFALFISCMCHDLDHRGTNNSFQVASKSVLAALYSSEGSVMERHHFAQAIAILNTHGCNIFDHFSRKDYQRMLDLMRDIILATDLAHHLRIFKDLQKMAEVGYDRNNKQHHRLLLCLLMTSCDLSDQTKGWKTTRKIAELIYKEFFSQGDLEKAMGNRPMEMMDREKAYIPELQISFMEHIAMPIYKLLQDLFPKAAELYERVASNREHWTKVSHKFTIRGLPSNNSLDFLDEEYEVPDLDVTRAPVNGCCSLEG

[5] = read-out: hPDE2A pIC50 (converted)
[6] = human clone by default (no (r) mark), read-out: hPDE10A2 or rPDE10A2 Emax
[7] = human clone by default (no (r) mark), read-out: hPDE10A2 or rPDE10A2 pIC50 (converted)
[8] = 10 mg/kg, route PO (oral), percentage receptor occupancy, ex-vivo autoradiography, striatum
[9] = hPDE2A pIC50, human recombinant PDE2A, 10 μM cGMP substrate
[10] = human clone (h), default, read-out: hPDE10A2 Emax
[11] = human clone (h), default, read-out: hPDE10A2 pIC50 (converted)
[12] = po, 10 mg/kg, route PO (oral), percentage receptor occupancy, ex-vivo autoradiography, striatum
[13] = human recombinant PDE2A, 10 μM cGMP substrate, read-out: hPDE2A pIC50 (converted)
[14] = sc, 10 mg/kg, route SC (subcutaneous), percentage receptor occupancy, ex-vivo autoradiography, striatum

T2 sequence (Q14432 whole entry): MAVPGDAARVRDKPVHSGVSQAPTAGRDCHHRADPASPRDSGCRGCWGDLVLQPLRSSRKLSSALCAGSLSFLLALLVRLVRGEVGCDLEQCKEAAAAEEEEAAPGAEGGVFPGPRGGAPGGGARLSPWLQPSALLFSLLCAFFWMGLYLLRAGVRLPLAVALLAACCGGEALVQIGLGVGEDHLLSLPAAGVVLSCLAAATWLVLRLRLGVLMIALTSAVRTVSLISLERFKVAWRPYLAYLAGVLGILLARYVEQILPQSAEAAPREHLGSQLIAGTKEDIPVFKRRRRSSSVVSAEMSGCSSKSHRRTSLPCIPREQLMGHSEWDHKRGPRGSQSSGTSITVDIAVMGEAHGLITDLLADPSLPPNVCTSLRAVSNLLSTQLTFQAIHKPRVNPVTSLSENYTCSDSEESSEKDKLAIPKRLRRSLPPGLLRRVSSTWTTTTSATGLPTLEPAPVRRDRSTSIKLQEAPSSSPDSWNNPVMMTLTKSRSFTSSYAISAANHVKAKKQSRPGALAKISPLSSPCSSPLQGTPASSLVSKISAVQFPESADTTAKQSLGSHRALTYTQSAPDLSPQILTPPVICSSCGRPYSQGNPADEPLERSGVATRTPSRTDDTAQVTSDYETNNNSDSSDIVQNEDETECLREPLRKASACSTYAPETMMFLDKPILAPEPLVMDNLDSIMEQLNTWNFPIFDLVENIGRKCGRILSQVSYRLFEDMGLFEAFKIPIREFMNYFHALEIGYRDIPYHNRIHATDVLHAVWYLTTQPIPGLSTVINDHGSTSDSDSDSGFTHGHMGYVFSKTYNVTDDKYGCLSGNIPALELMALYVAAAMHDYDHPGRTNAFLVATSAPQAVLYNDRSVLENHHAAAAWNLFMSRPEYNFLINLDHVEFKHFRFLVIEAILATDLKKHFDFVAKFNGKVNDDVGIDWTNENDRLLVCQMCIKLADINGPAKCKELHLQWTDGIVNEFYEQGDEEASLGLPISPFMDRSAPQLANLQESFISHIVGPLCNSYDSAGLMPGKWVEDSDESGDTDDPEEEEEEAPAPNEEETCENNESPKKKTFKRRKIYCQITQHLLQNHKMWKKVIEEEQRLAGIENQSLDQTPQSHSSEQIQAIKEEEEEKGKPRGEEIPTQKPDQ
T1 sequence (O00408 whole entry): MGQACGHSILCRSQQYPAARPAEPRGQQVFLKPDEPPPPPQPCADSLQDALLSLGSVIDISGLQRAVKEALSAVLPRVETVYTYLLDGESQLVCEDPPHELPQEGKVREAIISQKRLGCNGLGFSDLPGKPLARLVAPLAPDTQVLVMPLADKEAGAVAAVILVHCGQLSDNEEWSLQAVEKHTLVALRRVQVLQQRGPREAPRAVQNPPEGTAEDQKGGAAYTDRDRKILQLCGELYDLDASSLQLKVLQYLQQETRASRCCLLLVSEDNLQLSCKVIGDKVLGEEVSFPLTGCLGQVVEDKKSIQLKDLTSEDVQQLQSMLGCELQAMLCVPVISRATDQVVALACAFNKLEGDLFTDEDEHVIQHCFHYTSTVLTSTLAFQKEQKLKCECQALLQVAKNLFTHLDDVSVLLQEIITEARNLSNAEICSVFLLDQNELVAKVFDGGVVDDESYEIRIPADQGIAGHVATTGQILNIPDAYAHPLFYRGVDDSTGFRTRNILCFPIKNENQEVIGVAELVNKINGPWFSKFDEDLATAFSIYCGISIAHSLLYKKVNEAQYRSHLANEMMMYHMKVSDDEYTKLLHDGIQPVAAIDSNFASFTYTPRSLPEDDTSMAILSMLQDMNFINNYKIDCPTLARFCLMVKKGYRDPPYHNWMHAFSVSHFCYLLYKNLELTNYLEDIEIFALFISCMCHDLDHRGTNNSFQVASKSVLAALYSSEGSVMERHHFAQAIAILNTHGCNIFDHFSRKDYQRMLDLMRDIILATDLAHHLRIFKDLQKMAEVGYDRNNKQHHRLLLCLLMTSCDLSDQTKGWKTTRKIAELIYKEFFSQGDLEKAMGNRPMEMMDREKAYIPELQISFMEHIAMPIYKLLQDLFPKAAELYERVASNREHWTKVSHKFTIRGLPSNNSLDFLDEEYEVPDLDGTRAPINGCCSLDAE
T3 sequence (Q9Y233 267-1055): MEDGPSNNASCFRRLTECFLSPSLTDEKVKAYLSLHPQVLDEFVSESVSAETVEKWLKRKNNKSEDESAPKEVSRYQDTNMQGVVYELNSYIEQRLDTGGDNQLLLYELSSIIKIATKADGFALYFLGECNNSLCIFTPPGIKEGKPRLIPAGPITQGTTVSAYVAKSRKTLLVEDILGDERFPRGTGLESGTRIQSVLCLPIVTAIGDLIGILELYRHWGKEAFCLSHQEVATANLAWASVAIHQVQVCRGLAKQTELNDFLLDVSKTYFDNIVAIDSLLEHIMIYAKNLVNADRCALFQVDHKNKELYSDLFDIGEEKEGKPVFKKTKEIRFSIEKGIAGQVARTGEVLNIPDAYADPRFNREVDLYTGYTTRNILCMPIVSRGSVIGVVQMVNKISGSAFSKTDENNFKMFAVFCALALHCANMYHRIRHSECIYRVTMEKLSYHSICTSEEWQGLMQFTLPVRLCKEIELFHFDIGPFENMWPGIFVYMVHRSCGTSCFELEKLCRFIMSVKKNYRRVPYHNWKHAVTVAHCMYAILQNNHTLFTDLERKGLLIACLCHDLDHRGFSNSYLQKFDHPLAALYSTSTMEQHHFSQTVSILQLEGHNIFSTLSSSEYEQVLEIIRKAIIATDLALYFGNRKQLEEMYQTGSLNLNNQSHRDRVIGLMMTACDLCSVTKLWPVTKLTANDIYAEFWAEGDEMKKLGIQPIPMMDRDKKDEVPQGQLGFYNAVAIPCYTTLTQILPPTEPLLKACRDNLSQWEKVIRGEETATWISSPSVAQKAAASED

SMILES: Cn1cc(C(=O)N2[C@H]3CC[C@H](c4cc(C(F)F)nc5ncnn45)[C@@H]2CC3)c2ccccc21 [Compound 297]
- Emax [1]: 97%
- IC50 [1, 5]: 2.34 nM
- IC50 [2]: 5890 nM
- Emax [2]: 62%
- Emax [3, 6]: 96%
- IC50 [3, 7]: 589 nM
- receptor occupancy at 10 mg/kg [4, 8]: -2%

SMILES: Cc1cc([C@@H]2CN(C(=O)c3cc(C)c(Cl)c(C)c3)CC[C@H]2C)n2ncnc2n1 [Compound 109]
- IC50 ([1]; hPDE2A pIC50): 0.933 nM
- IC50 [1, 9]: 0.933 nM
- Emax [1]: 101%
- IC50 [2]: 457 nM
- Emax [2]: 98%
- Emax [3, 10]: 99%
- IC50 [3, 11]: 6.61 nM
- receptor occupancy at 10 mg/kg [4, 12]: 43%

SMILES: Cc1cc([C@@H]2CN(C(=O)c3ccc4occc4c3)CC[C@H]2C)n2ncnc2n1 [Compound 6]
- IC50 ([1]; hPDE2A pIC50): 1.62 nM
- IC50 [1, 9]: 1.62 nM
- Emax [1]: 99%
- IC50 [2]: 676 nM
- Emax [2]: 97%
- Emax [3, 10]: 100%
- IC50 [3, 11]: 17.8 nM
- receptor occupancy at 10 mg/kg [4, 12]: 67%

SMILES: Cc1cc(C(=O)N2CC[C@@H](C)[C@](F)(c3cc(C(F)F)nc4ncnn34)C2)cc(C2CC2)n1 [Compound 24b]
- hPDE2A Emax [1]: 98
- hPDE2A pIC50 [1]: 8.19
- hPDE2A Emax ([1]; human recombinant PDE2A): 98
- hPDE2A pIC50 ([1]; human recombinant PDE2A, 10 μM cGMP substrate): 8.19
- hPDE3B Emax [2]: 28
- hPDE10A2 Emax ([3]; human clone (h), default): 60
- hPDE10A2 pIC50 ([3]; human clone (h), default): 5.13
- PDE2 Occupancy at 10 mg/kg ([4]; 10 mg/kg, route SC (subcutaneous), percentage receptor occupancy, ex-vivo autoradiography, striatum): 0

SMILES: Cc1cc(C(=O)N2[C@H]3CC[C@H](c4cc(C(F)F)nc5ncnn45)[C@@H]2CC3)cc(OC(F)F)n1 [Compound 293]
- Emax [1]: 100%
- IC50 [1, 5]: 11.2 nM
- IC50 [2]: 3470 nM
- Emax [2]: 80%
- Emax [3, 6]: 90%
- IC50 [3, 7]: 1020 nM
- receptor occupancy at 10 mg/kg [4, 8]: 6%

SMILES: C[C@@H]1CCN(C(=O)c2nc3ccccc3o2)C[C@H]1c1cc(C(F)F)nc2ncnn12 [Compound 47]
- IC50 [1, 13]: 2.51 nM
- Emax ([1]; human recombinant PDE2A): 99%
- Emax [1]: 99%
- IC50 [1, 5]: 2.51 nM
- IC50 [2]: 3390 nM
- Emax [2]: 80%
- Emax [3, 10]: 92%
- IC50 [3, 11]: 646 nM
- receptor occupancy at 10 mg/kg [4, 12]: 5%

SMILES: COc1nc(N)ncc1C(=O)N1CC[C@@H](C)[C@H](c2cc(C(F)F)nc3ncnn23)C1 [Compound 38]
- IC50 [1, 13]: 6.17 nM
- Emax ([1]; human recombinant PDE2A): 100%
- Emax [1]: 100%
- IC50 [1, 5]: 6.17 nM
- IC50 [2]: > 10000 nM
- Emax [2]: 43%
- Emax [3, 10]: 80%
- IC50 [3, 11]: 2290 nM
- receptor occupancy at 10 mg/kg [4, 12]: 1%

SMILES: C[C@@H]1CCN(C(=O)c2cc(OC(F)F)cc(C3CC3)c2)C[C@H]1c1cc(C(F)F)nc2ncnn12 [Compound 91]
- IC50 [1, 13]: 0.372 nM
- Emax ([1]; human recombinant PDE2A): 100%
- Emax [1]: 100%
- IC50 [1, 5]: 0.372 nM
- IC50 [2]: 708 nM
- Emax [2]: 61%
- Emax [3, 10]: 94%
- IC50 [3, 11]: 22.4 nM
- receptor occupancy at 10 mg/kg [4, 12]: -7%

SMILES: C[C@@H]1CCN(C(=O)c2ccc(F)c(O)c2)C[C@H]1c1cc(C(F)F)nc2ncnn12 [Compound 186]
- IC50 [1, 13]: 10.7 nM
- Emax ([1]; human recombinant PDE2A): 100%
- Emax [1]: 100%
- IC50 [1, 5]: 10.7 nM
- IC50 [2]: 6030 nM
- Emax [2]: 69%
- Emax [3, 10]: 95%
- IC50 [3, 11]: 339 nM
- receptor occupancy at 10 mg/kg [4, 14]: 8%

SMILES: Cc1nccc(C(=O)N2CC[C@@H](C)[C@H](c3cc(C(F)F)nc4ncnn34)C2)c1F [Compound 68]
- IC50 [1, 13]: 6.31 nM
- Emax ([1]; human recombinant PDE2A): 99%
- Emax [1]: 99%
- IC50 [1, 5]: 6.31 nM
- Emax [2]: 50%
- Emax [3, 10]: 85%
- IC50 [3, 11]: 1380 nM
- receptor occupancy at 10 mg/kg [4, 14]: 31%

SMILES: COc1cc(C(=O)N2CC[C@@H](C)[C@H](c3cc(C(F)F)nc4ncnn34)C2)c(F)cn1 [Compound 36]
- Emax [1]: 100%
- IC50 [1, 5]: 2.75 nM
- IC50 [2]: 3980 nM
- Emax [2]: 64%
- Emax [3, 10]: 93%
- IC50 [3, 11]: 468 nM
- receptor occupancy at 10 mg/kg [4, 12]: 32%
- ED50 ([4]; route PO (oral)): 45.2 mg/kg

SMILES: O=C(c1cnc2c(F)cccc2c1)N1[C@H]2CC[C@H](c3cc(C(F)F)nc4ncnn34)[C@@H]1CC2 [Compound 309]
- Emax [1]: 100%
- IC50 [1, 5]: 2.95 nM
- IC50 [2]: 7590 nM
- Emax [2]: 53%
- Emax [3, 6]: 86%
- IC50 [3, 7]: 1510 nM
- receptor occupancy at 10 mg/kg [4, 8]: 12%

SMILES: C[C@@H]1CCN(C(=O)c2ccc3scnc3c2)C[C@H]1c1cc(C(F)F)nc2ncnn12 [Compound 227]
- IC50 [1, 13]: 2.19 nM
- Emax ([1]; human recombinant PDE2A): 101%
- Emax [1]: 101%
- IC50 [1, 5]: 2.19 nM
- IC50 [2]: 380 nM
- Emax [2]: 95%
- Emax [3, 10]: 98%
- IC50 [3, 11]: 45.7 nM
- Emax [3, 6]: 98%
- IC50 [3, 7]: 45.7 nM
- receptor occupancy at 10 mg/kg [4, 14]: 18%

SMILES: Cc1cc(C(=O)N2CC[C@@H](C)[C@H](c3cc(C(F)F)nc4ncnn34)C2)c(F)cn1 [Compound 84]
- IC50 [1, 13]: 3.16 nM
- Emax ([1]; human recombinant PDE2A): 101%
- Emax [1]: 101%
- IC50 [1, 5]: 3.16 nM
- IC50 [2]: 7410 nM
- Emax [2]: 30%
- Emax [3, 10]: 89%
- IC50 [3, 11]: 708 nM
- receptor occupancy at 10 mg/kg [4, 12]: 45%
- ED50 ([4]; route PO (oral)): 14.1 mg/kg

SMILES: CN(C)c1ccc(C(=O)N2[C@H]3CC[C@H](c4cc(C(F)F)nc5ncnn45)[C@@H]2CC3)cc1 [Compound 362]
- Emax [1]: 99%
- IC50 [1, 5]: 1.7 nM
- IC50 [2]: 871 nM
- Emax [2]: 88%
- Emax [3, 6]: 93%
- IC50 [3, 7]: 794 nM
- receptor occupancy at 10 mg/kg [4, 8]: 3%
